Test results reported in paper PMC10077475, “DG9-conjugated morpholino rescues phenotype in SMA mice by reaching the CNS via a subcutaneous administration” (JCI Insight, 2023).

Legend:
Type in all cases: in vivo
[1] = system: severe SMA mouse model (Taiwanese model); assay: Survival of severe SMA mice after a single subcutaneous injection at PD0; settings: until humane endpoint
Protocol: To examine whether DG9 peptide can increase the efficacy of PMO, we conjugated it to an 18-mer PMO with a sequence identical to nusinersen. The DG9-PMO, unconjugated PMO, and MOE were injected into SMA model mice [Cg-Tg(SMN2)2HungSmn1^tm1Hung/J; abbreviated as Smn^–/– SMN2^Tg/Tg; commonly called the Taiwanese model]. We also used an arginine-rich peptide (R6G) that is currently being explored in clinical trials for Duchenne muscular dystrophy (DMD) and used in preclinical studies for Hutchinson-Gilford progeria syndrome ([37], [38]). The benchmark control peptide R6G was conjugated to the same PMO sequence used in our study (R6G-PMO). […] We subcutaneously injected mice with the AOs or saline (nontreated, NT) administered at postnatal day 0 (PD0) at 2 doses: 40 mg/kg or 80 mg/kg. In our preliminary experiments, we also tested lower doses of 10 and 20 mg/kg (data not shown). […] The survival was recorded until a humane endpoint was reached. For the 40 mg/kg doses, the median survival was 12 days for unconjugated PMO, 15.5 days for MOE, and 17 days for R6G-PMO, which was increased to 58 days for DG9-PMO treatment (Figure 1A and Supplemental Figure 1A; supplemental material available online with this article; https://doi.org/10.1172/jci.insight.160516DS1). The median survival increased to 57 days for unconjugated PMO, 64 days for MOE, and 121 days for DG9-PMO at the higher dose of 80 mg/kg (Figure 1A). […] In spite of no statistical difference between DG9-PMO and MOE groups, the median survival of DG9-PMO still was higher than MOE, as only 1 mouse was alive until PD200 following a 40 mg/kg injection of MOE.
SMA-transgenic mice [JAX stock 005058 FVB.Cg-Tg(SMN2)2HungSmn1^tm1Hung/J] (Smn^–/–; SMN2^Tg/Tg), also known as Taiwanese mice, were purchased from Jackson Laboratory. Heterozygous mice for Smn1 (Smn1^+/–; SMN2^–/–) generated by us were crossed with mice homozygous for Smn1 Smn^–/–; SMN2^Tg/Tg generated by us to obtain the SMA mice (Smn^–/–; SMN2^Tg/–) or the heterozygous healthy control (Smn1^+/–; SMN2^Tg/–). The SMA mice display a severe overt phenotype similar to patients with SMA type I. The mice were genotyped using a PCR assay on genomic DNA isolated from tail biopsies using the Phire Tissue Direct PCR Kit (Thermo Fisher Scientific) as per the manufacturer’s instructions. The DNA was amplified using the primers described in Supplemental Table 1 using the condition Mouse Smn: 98°C/5 minutes → 98°C/5 s 58°C/10 s 72°C/10 s × 35 cycles → 72°C/1 minute.
Injections were carried out using a 30-gauge Hamilton syringe. SMA mice identified following genotyping were randomly assigned to a treatment group. The researcher injecting mice was blinded to the treatment. SMA neonates were subcutaneously injected with 40 or 80 mg/kg of AOs at PD0, while NT and heterozygous control mice were injected with saline (n = 10–49) per group. Tissues including the quadriceps muscle, liver, kidney, spleen, diaphragm, intercostal muscle, heart, brain, and spinal cord were collected and snap-frozen in dry ice– cooled isopentane, then subsequently stored at –80°C.

[2] = system: severe SMA mouse model; assay: Muscle pathology by H&E staining (myofiber size, centrally nucleated fibers)
Excerpt: Atrophic musculature is a classical characteristic feature of SMA with diminished skeletal muscle fiber size. To determine the treatment effects on muscle pathology, we assessed the physiology and architecture of the myofibers of 2 affected muscle groups, the quadriceps and intercostal muscles, as well as the sparingly affected diaphragm at PD7 and PD30 ([42], [43]). We quantified the cross-sectional area (CSA), the minimal Feret’s diameter, and centrally nucleated fibers, a hallmark of pathological muscle degeneration/regeneration cycle, for at least 500 myofibers per muscle for each treatment using hematoxylin and eosin (H&E) staining at PD7 and PD30 (Figure 4, A and B, and Supplemental Figures 5 and 6). […] The effect of DG9-PMO persisted at PD30 (Supplemental Figure 6).
Cryosections (7 μm) of the quadriceps muscle, diaphragm, and intercostal muscle were stained with Meyer’s H&E reagents (Electron Microscopy Reagents) ([70]). For the centrally nucleated fibers and myofiber size, 500–800 were randomly selected per muscle per treatment. The CSA and minimal Feret’s diameter were quantified using ImageJ (NIH). All H&E analyses were performed in a blinded fashion.

[3] = system: severe SMA mouse model; assay: Righting reflex test; settings: 40 mg/kg s.c. at PD0, compared with the other groups
Excerpt: To evaluate the effects of systemic DG9-PMO treatment on muscle strength and the function of motor neurons, we used several functional tests and compared motor function in the treated and NT mice at various time points. We performed the hind limb suspension (HLS) assay and the righting reflex test during the early weeks of life. […] It should be noted that the results beyond PD12 are biased, as only the healthiest unconjugated PMO–, MOE-, and R6G-PMO–treated mice survived to these time points.
This spontaneous ability of the mice to right themselves up was tested from PD2 until the weaning stage PD20. The neonates were placed on their backs, and the time taken to reposition and place all 4 paws on the ground was noted. The recording time was a maximum of 60 seconds. Each neonate underwent 3 trials, with a resting period of at least 10 minutes between trials. The data are expressed as the mean time to complete the righting reflex test ± SEM.

[4] = single subcutaneous injection at PD0, 40 mg/kg
[5] = single subcutaneous injection at PD0, 80 mg/kg

Row | Compound | median survival [1, 4] [days] | median survival [1, 5] [days] | centrally nucleated fibers ([2]; 40 mg/kg s.c. at PD0, PD7) | Feret's diameter and CSA of myofibers at PD7 compared with NT control ([2]; 40 mg/kg s.c. at PD0, quadriceps, diaphragm, intercostal muscle) | time to right (righting reflex) [3] | myofiber size at PD30 compared with DG9-PMO ([2]; 40 mg/kg s.c. at PD0, all 3 tissue types)
1 | CC(=O)N[C@@H](Cc1ccc(O)cc1)C(=O)N[C@@H](C)C(=O)N[C@H](CCCNC(=N)N)C(=O)N[C@H](C(=O)N[C@@H](CCCNC(=N)N)C(=O)N[C@@H](CCCNC(=N)N)C(=O)N[C@H](CCCNC(=N)N)C(=O)NCC(=O)N1CCC[C@H]1C(=O)N[C@@H](CCCNC(=N)N)C(=O)NCC(=O)N[C@@H](Cc1ccc(O)cc1)C(=O)N[C@@H](C)C(=O)N[C@H](CCCNC(=N)N)C(=O)N[C@H](C(=O)N[C@@H](CCCNC(=N)N)C(=O)N[C@@H](CCCNC(=N)N)C(=O)N[C@H](CCCNC(=N)N)C(=O)NCC(=O)N1CCC[C@H]1C(=O)N[C@@H](CCCNC(=N)N)C(=O)N[C@H](CCCNC(=N)N)C(=O)N1C[C@@H](COP(=O)(N(C)C)N2C[C@@H](COP(=O)(N(C)C)N3C[C@@H](COP(=O)(N(C)C)N4C[C@@H](COP(=O)(N(C)C)N5C[C@@H](COP(=O)(N(C)C)N6C[C@@H](COP(=O)(N(C)C)N7C[C@@H](COP(=O)(N(C)C)N8C[C@@H](COP(=O)(N(C)C)N9C[C@@H](COP(=O)(N(C)C)N%10C[C@@H](COP(=O)(N(C)C)N%11C[C@@H](COP(=O)(N(C)C)N%12C[C@@H](COP(=O)(N(C)C)N%13C[C@@H](COP(=O)(N(C)C)N%14C[C@@H](COP(=O)(N(C)C)N%15C[C@@H](COP(=O)(N(C)C)N%16C[C@@H](COP(=O)(N(C)C)N%17C[C@@H](COP(=O)(N(C)C)N%18C[C@@H](COP(=O)(N(C)C)N%19CCC(C(N)=O)CC%19)O[C@@H](n%19cc(C)c(=O)[nH]c%19=O)C%18)O[C@@H](n%18ccc(N)nc%18=O)C%17)O[C@@H](n%17cnc%18c(N)ncnc%18%17)C%16)O[C@@H](n%16ccc(N)nc%16=O)C%15)O[C@@H](n%15cc(C)c(=O)[nH]c%15=O)C%14)O[C@@H](n%14cc(C)c(=O)[nH]c%14=O)C%13)O[C@@H](n%13cc(C)c(=O)[nH]c%13=O)C%12)O[C@@H](n%12ccc(N)nc%12=O)C%11)O[C@@H](n%11cnc%12c(N)ncnc%12%11)C%10)O[C@@H](n%10cc(C)c(=O)[nH]c%10=O)C9)O[C@@H](n9cnc%10c(N)ncnc%109)C8)O[C@@H](n8cnc9c(N)ncnc98)C7)O[C@@H](n7cc(C)c(=O)[nH]c7=O)C6)O[C@@H](n6cnc7c(=O)[nH]c(N)nc76)C5)O[C@@H](n5ccc(N)nc5=O)C4)O[C@@H](n4cc(C)c(=O)[nH]c4=O)C3)O[C@@H](n3cnc4c(=O)[nH]c(N)nc43)C2)O[C@@H](n2cnc3c(=O)[nH]c(N)nc32)C1)C(C)C)C(C)C (some centres unmarked) [DG9-PMO] | 58 | 121 | significant decrease in the percentage of centrally nucleated fibers | significantly larger in all 3 muscle groups | significantly shorter time to right themselves on their paws between PD6 and PD10 | 
2 | unconjugated PMO: PMO targeting ISS-N1 intron 7 (5′ TCACTTTCATAATGCTGG 3′), purchased from Gene Tools LLC (all phosphorodiamidate morpholino (PMO)) [reference compound] | 12 | 57 |  |  |  | significantly smaller myofibers
